How the values were obtained:
[1] = test system: mice subjected to closed head injury (CHI); experiment: Barnes maze (BM) acquisition, recall and exploration strategies after CHI; format: in vivo; settings: 2 weeks after the trauma, 3 days after the last treatment; 125 mg/kg or 50 mg/kg (both doses), gavage, 9 treatments
Method: At 1 h after CHI, the NSS is evaluated.
• The BM test is based on the instinct of the mouse to hide when exposed to environmental disturbances and is used to test spatial learning and memory. The maze consists of an elevated circular platform with holes in the perimeter and a small dark hidden goal box. Bright light and aversive noise (85 dB) force the animals to escape from the open platform surface to find the hole under which the dark chamber (21×22×21 cm), “target goal box,” is located. Visual cues of different colors and shapes are placed around the room. The mouse was placed under a cylindrical black start chamber at the center of the maze. […] For the probe trial, the latency to reaching the escape box first are recorded. • The Barnes maze test was performed: • 1) Between days 14-17 (2 weeks) plus a recall test on days 18 and 25 after injury, for a total round of 6. • 2) Between days 54-57 (2 months) plus a recall test on days 58 and 65 after injury for a total round of 2. • 3) Between days 183-186 (6 months) plus a recall test on days 187 and 194 after injury for a total round of 2. • 4) Between days 277-280 (9 months) plus a recall test on days 281 and 288 after injury for a total round of 1. • The captured videos were analyzed with Ethovision XP10 software (Noldus, The Netherlands) for later evaluation of the strategies used to locate the target box. […]

acetyl choline esterase = acetyl choline esterase (Homo sapiens, UniProt P22303); settings: WO 2013/168090 [10]; cited from earlier work
acetyl choline esterase, sequence (P22303 32-614): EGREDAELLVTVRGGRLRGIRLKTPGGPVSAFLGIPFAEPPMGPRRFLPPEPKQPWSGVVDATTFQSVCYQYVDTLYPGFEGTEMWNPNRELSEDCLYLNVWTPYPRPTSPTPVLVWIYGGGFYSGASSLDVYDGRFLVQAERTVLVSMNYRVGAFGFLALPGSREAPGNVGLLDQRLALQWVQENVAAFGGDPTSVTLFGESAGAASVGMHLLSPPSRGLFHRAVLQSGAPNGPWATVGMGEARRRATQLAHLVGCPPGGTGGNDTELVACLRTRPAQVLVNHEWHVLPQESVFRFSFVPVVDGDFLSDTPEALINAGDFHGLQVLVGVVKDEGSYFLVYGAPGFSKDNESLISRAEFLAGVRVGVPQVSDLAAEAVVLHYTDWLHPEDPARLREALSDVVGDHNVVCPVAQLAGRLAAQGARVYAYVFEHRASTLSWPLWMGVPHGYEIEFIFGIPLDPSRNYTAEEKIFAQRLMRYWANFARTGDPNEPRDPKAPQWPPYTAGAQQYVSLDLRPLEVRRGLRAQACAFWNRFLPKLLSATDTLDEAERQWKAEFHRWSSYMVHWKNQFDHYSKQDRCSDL

Compound	Barnes maze acquisition, learning curve [1]	Activity of the enzyme acetyl choline esterase in vitro (acetyl choline esterase)
CC(C)=CCCC(C)CCO (centres unmarked) [Citronellol, citronellol]	A significant improvement in the learning curve	
CC(C)=CCC[C@H](C)CCO [(S) (−) citronellol]		inhibits

Reference: patent US20250073292A1, “PELARGONIUM GRAVEOLENS EXTRACT FOR THE TREATMENT OF TRAUMATIC BRAIN INJURIES” (priority 2021, published 2025)
